Columns and labels:
Settings in all cases: 72 h
Caco-2 [1] = experiment: relative viability EC50 (midpoint between 100% and the lowest measured viability); higher = less toxic
HepG2 [2] = experiment: as above
Caco-2 [3] = experiment: drug sensitivity score (DSS) for viability; higher = more toxic; extreme values may be limits of the assay
HepG2 [4] = experiment: as above
Caco-2 [5] = experiment: cell viability relative to DMSO; higher = less toxic
HepG2 [6] = experiment: as above
Vero E6 [7] = experiment: relative viability EC50 (midpoint between 100% and the lowest measured viability); higher = less toxic
Calu-3 [8] = experiment: as above
Vero E6 [9] = experiment: drug sensitivity score (DSS) for viability; higher = more toxic; extreme values may be limits of the assay
Calu-3 [10] = experiment: as above
Vero E6 [11] = experiment: cell viability relative to DMSO; higher = less toxic
Calu-3 [12] = experiment: as above
U2OS [13] = experiment: drug sensitivity score (DSS) for viability; higher = more toxic; extreme values may be limits of the assay
U2OS [14] = experiment: cell viability relative to DMSO; higher = less toxic

Structure (SMILES)	relative viability EC50 (Caco-2 [1])	relative viability EC50 (HepG2 [2])	drug sensitivity score (Caco-2 [3])	drug sensitivity score (HepG2 [4])	cell viability (Caco-2 [5]; 1 nM)	cell viability (Caco-2 [5]; 10 nM)	cell viability (Caco-2 [5]; 100 nM)	cell viability (Caco-2 [5]; 1000 nM)	cell viability (Caco-2 [5]; 10000 nM)	cell viability (HepG2 [6]; 1 nM)	cell viability (HepG2 [6]; 10 nM)	cell viability (HepG2 [6]; 100 nM)	cell viability (HepG2 [6]; 1000 nM)	cell viability (HepG2 [6]; 10000 nM)	relative viability EC50 (Vero E6 [7])	relative viability EC50 (Calu-3 [8])	drug sensitivity score (Vero E6 [9])	drug sensitivity score (Calu-3 [10])	cell viability (Vero E6 [11]; 1 nM)	cell viability (Vero E6 [11]; 10 nM)	cell viability (Vero E6 [11]; 100 nM)	cell viability (Vero E6 [11]; 1000 nM)	cell viability (Vero E6 [11]; 10000 nM)	cell viability (Calu-3 [12]; 1 nM)	cell viability (Calu-3 [12]; 10 nM)	cell viability (Calu-3 [12]; 100 nM)	cell viability (Calu-3 [12]; 1000 nM)	cell viability (Calu-3 [12]; 10000 nM)	drug sensitivity score (U2OS [13])	cell viability (U2OS [14]; 1 nM)	cell viability (U2OS [14]; 10 nM)	cell viability (U2OS [14]; 100 nM)	cell viability (U2OS [14]; 1000 nM)	cell viability (U2OS [14]; 10000 nM)
O=C(Nc1ccc(S(=O)(=O)Nc2nccs2)cc1)C(c1ccccc1)c1ccccc1	> 10 µM	> 10 µM	0	0	105%	101%	113%	99%	103%	104%	105%	103%	110%	95.3%	–	–	–	–	–	–	–	–	–	–	–	–	–	–	–	–	–	–	–	–
O=c1[nH]cnc2c1cnn2[C@@H]1O[C@H](CO)[C@@H](O)[C@H]1O [allopurinol-riboside]	> 10 µM	–	0	–	97.7%	98%	111%	91.8%	101%	–	–	–	–	–	> 10 µM	> 10 µM	0	0	102%	100%	98.2%	103%	102%	102%	90.7%	103%	93.4%	98.1%	–	–	–	–	–	–
Oc1cccc(-c2nc(N3CCOCC3)c3oc4ncccc4c3n2)c1 [PI-103]	0.14 µM	–	13.1	5.3	100%	96.9%	81.2%	42.4%	49.9%	98.8%	104%	99.7%	70.9%	62%	–	–	11	5.1	98.3%	96.2%	87.9%	50.5%	53%	105%	95.1%	81.9%	84.1%	53.6%	5.6	103%	100%	97%	69.4%	76.6%
Cc1cccc(C)c1NC1=NCCCS1 [xylazine]	> 10 µM	–	0	–	105%	101%	98.7%	104%	92.1%	–	–	–	–	–	> 10 µM	> 10 µM	0	0	113%	105%	106%	102%	98.5%	94.4%	102%	92.1%	114%	90.2%	–	–	–	–	–	–
O=C(CBr)N1CC([N+](=O)[O-])([N+](=O)[O-])C1 [RRx-001]	> 10 µM	> 10 µM	0	0	105%	98.3%	113%	104%	105%	102%	114%	109%	106%	94.8%	> 10 µM	> 10 µM	0	0	106%	106%	99.6%	102%	102%	101%	91.6%	116%	100%	100%	–	–	–	–	–	–
